Data: ChEMBL document CHEMBL5727401, “Mixed lineage kinase inhibitors for HIV/AIDS therapies” (2019)

Biological target: Mitogen-activated protein kinase kinase kinase 11 (Homo sapiens, UniProt Q16584)
Assay: Radiometric Filter Plate MLK3 Assay: 200 ng (130 nM) MLK3 (Dundee, DU8313) was incubated with 1 μM inactive MKK7b (Dundee, DU703) in the presence of 2 μM cold ATP (Km) and 0.5 μCi/assay 33P ATP and appropriate concentrations of compounds. After a twenty minute incubation, the reactions were washed through filter plates and read on a scintillation counter.

Chain of Mitogen-activated protein kinase kinase kinase 11 (Q16584 whole entry): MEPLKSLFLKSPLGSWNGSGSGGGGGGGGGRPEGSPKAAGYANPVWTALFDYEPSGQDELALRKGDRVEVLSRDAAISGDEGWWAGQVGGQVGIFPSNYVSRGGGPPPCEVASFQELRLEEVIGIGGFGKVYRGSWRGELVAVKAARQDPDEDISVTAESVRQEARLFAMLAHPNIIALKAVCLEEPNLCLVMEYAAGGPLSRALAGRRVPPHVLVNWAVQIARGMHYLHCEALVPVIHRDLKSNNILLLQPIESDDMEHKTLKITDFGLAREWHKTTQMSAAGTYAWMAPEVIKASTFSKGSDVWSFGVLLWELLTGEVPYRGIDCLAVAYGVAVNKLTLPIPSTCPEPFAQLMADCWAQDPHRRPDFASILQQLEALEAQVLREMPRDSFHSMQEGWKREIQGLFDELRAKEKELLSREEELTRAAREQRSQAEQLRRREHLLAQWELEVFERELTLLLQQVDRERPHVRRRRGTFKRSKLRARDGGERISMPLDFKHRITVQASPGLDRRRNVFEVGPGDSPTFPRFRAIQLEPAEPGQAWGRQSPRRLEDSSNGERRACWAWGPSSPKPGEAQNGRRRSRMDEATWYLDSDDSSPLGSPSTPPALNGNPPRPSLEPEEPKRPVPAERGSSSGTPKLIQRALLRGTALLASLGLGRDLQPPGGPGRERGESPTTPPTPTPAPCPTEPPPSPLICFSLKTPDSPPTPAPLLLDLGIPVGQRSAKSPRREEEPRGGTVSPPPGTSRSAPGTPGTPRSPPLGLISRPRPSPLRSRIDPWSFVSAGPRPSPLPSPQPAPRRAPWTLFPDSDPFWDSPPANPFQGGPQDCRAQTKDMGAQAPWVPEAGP

IC50 | SMILES
< 100 nM | CN1CCN(Cc2ccc(-c3cnc4[nH]cc(-c5cnc6[nH]ccc6c5)c4c3)cc2)CC1
< 100 nM | c1cn(Cc2ccc(-c3cnc4[nH]cc(-c5ccc6[nH]ccc6c5)c4c3)cc2)cn1
